# Test results from PMC6823370, “A novel nucleoside rescue metabolic pathway may be responsible for therapeutic effect of orally administered cordycepin” (Scientific Reports, 2019).
# Key:
# Caco-2 permeability = assay type: in vitro ADME; details: human, Caco-2; read-out: apparent permeability coefficient (Papp), A to B
# Description: (§1) Caco-2 permeability assays were conducted following previously reported methods with 21-day maintenance on the Corning 24-well Transwell® (Fisher Scientific, Loughborough, UK)[48]. […] Both directions of apical-to-basolateral and basolateral-to-apical were tested. […] The experiments were conducted in triplicates.
# (§2) Samples from Caco-2 permeability, in vitro determination of CordyTP formation and in vivo experiments were subjected to protein precipitation followed by LC-MS/MS analysis. To 50 µL of rat plasma sample, 150 µL of internal standard solution (1.67 µg/mL 2-chloroadenosine in methanol) was added. The samples were then vortex-mixed for 10 s and were centrifuged for 3 min at 17949 g. Supernatant (20 µL) was collected and diluted 10-fold with DDW before injection into the LC-MS/MS for analysis of cordycepin and 3′-deoxyinosine. For analysis of CordyTP, the supernatant was filtered using filter tubes mentioned above and injected without dilution. Tissue samples were homogenised using Bullet Blender Gold (Next Advance, Inc., Troy, NY) in methanol (1:3 w/v) and centrifuged for 3 min at 17949 g. The supernatant was filtered and injected for analysis of CordyTP or diluted 10-fold with DDW for analysis of cordycepin and 3′-deoxyinosine. The LC-MS/MS system was a API4000 QTrap (AB Sciex, Warrington, UK) equipped with HPLC setup of SCL10Avp controller, LC10ADvp pump and SILHTC autosampler (Shimadzu, Milton Keynes, UK). Three different methods were utilised for each compound and multiple reaction monitoring parameters of the MS/MS conditions are shown in Table 1. The HPLC conditions including stationary phases and specific mass spectrometry parameters are shown in Supplementary Information 2. The LC-MS/MS method for cordycepin was fully validated in terms of accuracy, precision, sensitivity, selectivity, linearity and sample storage stability in accordance with the Guidance for Industry, Bioanalytical Method Validation, (2018) published by the US FDA (refer to Supplementary Information 3 for validation procedures and results)[53].
# Caco-2 cells = assay: Caco-2 permeability; assay type: in vitro ADME
# Description: as §1, §2
structure (smiles),measurement,setting,value
"Nc1ncnc2c1ncn2[C@@H]1O[C@H](CO)C[C@H]1O [cordycepin, 3′-deoxyadenosine]","Papp A→B at 120 min, 200 µM",Caco-2 permeability,0.11 ± 0.01 ×10⁻⁶ cm/s
same,cordycepin remaining in donor chamber at 120 min,Caco-2 cells; applied to apical side with pentostatin,remained stable
same,cordycepin remaining in donor chamber at 120 min,Caco-2 cells; applied to apical side without pentostatin,significantly degraded
same,cordycepin remaining in donor chamber at 120 min,Caco-2 cells; applied to basolateral side without pentostatin,remained stable
same,permeation of cordycepin,"Caco-2 cells; cordycepin 200 µM without pentostatin, A to B and B to A",not detected
